# Where two headings read alike, the source gives them in different places. Marks after values point to notes of the source that are not given here.
# How the values were obtained:
# JAK3 = molecular target: T1, JAK3 (Homo sapiens, UniProt P52333); test: JAK3 biochemical IC50; settings: for JAK3 selectivity vs. STAT5: STAT5 IC50 relative to JAK3 IC50; for selectivity for JAK3 compared to JAK1, JAK2, and TYK2 (in words): two independent analyses
# T1 sequence (P52333 1-1124): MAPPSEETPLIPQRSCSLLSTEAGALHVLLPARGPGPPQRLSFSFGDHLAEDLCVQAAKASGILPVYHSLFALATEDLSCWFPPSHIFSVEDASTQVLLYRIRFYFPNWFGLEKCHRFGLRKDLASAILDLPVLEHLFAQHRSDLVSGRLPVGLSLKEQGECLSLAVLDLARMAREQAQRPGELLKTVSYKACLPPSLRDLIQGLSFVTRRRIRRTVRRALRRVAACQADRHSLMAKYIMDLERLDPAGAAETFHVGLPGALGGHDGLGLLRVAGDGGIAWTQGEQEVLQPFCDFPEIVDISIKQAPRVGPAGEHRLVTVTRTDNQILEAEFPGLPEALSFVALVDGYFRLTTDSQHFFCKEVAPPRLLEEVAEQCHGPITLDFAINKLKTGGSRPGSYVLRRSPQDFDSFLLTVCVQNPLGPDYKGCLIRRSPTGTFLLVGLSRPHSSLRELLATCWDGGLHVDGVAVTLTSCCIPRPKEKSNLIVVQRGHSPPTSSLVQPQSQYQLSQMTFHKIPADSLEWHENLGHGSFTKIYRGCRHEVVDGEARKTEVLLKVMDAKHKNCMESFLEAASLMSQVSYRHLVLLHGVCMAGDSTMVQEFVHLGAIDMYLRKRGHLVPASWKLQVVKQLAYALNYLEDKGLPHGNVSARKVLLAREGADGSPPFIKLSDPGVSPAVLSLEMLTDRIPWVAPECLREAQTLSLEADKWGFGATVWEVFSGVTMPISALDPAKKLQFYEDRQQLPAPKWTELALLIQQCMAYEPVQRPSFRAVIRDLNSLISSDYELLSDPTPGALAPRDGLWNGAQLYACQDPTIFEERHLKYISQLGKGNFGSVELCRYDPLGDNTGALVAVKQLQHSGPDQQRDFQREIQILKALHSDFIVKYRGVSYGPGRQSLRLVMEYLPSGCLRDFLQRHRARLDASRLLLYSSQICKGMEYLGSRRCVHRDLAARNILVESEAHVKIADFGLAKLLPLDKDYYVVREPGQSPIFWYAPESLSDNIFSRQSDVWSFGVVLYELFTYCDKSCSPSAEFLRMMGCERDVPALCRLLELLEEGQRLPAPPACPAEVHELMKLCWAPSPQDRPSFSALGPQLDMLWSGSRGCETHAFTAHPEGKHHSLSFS
# TXK = molecular target: T2, TXK (Homo sapiens, UniProt P42681); test: Exemplary Kinase Panel Analysis; format: biochemical; settings: 10 concentrations, 3-fold serial dilutions starting at 5 μM, duplicate
# T2 sequence (P42681 1-527): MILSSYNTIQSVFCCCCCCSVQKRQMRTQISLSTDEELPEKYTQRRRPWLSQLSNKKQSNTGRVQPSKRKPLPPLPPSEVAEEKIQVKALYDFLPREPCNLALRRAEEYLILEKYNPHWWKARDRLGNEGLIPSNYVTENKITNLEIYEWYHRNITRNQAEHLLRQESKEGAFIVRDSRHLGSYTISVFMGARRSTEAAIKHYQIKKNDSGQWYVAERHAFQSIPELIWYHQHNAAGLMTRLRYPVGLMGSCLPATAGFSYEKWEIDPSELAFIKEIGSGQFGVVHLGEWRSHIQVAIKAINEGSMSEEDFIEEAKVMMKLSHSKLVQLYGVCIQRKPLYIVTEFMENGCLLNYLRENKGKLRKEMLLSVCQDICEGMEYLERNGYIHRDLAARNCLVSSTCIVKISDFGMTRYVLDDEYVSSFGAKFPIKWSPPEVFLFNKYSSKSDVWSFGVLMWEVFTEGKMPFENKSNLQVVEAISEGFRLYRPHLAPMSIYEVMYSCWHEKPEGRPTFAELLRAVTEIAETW
# CYP1A2 = molecular target: T3, CYP1A2 (Homo sapiens, UniProt P05177); test: CYP1A2 inhibition LCMS; format: in vitro ADME
# T3 sequence (P05177 1-516): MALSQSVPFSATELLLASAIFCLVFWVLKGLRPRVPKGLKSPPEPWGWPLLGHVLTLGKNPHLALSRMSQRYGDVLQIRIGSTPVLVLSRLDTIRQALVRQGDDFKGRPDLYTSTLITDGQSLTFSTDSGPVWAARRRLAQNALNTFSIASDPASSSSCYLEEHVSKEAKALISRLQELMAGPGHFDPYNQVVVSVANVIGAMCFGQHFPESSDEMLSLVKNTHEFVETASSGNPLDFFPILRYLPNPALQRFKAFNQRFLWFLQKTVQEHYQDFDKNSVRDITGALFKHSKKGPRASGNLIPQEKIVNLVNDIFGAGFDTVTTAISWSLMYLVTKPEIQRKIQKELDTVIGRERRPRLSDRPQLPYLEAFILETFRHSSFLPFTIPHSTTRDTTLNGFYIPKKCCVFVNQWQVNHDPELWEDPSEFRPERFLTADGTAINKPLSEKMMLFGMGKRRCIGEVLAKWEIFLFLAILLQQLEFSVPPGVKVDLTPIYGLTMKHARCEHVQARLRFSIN
# [1] = Brain penetration classification
# STAT5 = STAT5 inhibition IC50; format: cell-based
# [2] = Solubility in aqueous buffer; format: physicochemical; settings: for solubility: aqueous buffer
# CK1g3 = CK1g3 (Homo sapiens, UniProt Q9Y6M4); test: Exemplary Kinase Panel Analysis; format: biochemical; settings: 10 concentrations, 3-fold serial dilutions starting at 5 μM, duplicate
# EGFR (T790M) = EGFR (T790M) (Homo sapiens, UniProt P00533, T790M); test: Exemplary Kinase Panel Analysis; format: biochemical; settings: 10 concentrations, 3-fold serial dilutions starting at 5 μM, duplicate
# EGFR (L858R, T790M) = EGFR (L858R, T790M) (Homo sapiens, UniProt P00533, L858R/T790M); test: Exemplary Kinase Panel Analysis; format: biochemical; settings: 10 concentrations, 3-fold serial dilutions starting at 5 μM, duplicate
# [3] = Original analysis, read-out: JAK3 IC50 (uM) Original
# [4] = Table 3, first session (before /), read-out: JAK3 biochemical IC50
# [5] = Table 3, second session (after /), read-out: JAK3 biochemical IC50
# [6] = re-test, read-out: JAK3 IC50 (uM) re-test
# [7] = Original analysis, read-out: STAT5 IC50 (uM) Original
# [8] = Table 3, first session (before /), read-out: STATS inhibition IC50
# [9] = Table 3, second session (after /), read-out: STATS inhibition IC50
# [10] = re-test, read-out: STAT5 IC50 (uM) re-test
# [11] = pH 7.4, aqueous buffer, pH 7.4, Original, read-out: Solubility pH 7.4 (uM) Original
# [12] = pH 7.4, aqueous buffer, pH 7.4, Re-test, read-out: Solubility pH 7.4 (uM) Re-test
# [13] = pH 7.4, aqueous buffer, pH 7.4, Table 3, first session (before /), read-out: Solubility, pH 7.4
# [14] = pH 7.4, aqueous buffer, pH 7.4, Table 3, second session (after /), read-out: Solubility, pH 7.4
# EGFR (T790M), sequence (P00533 25-1210 T790M): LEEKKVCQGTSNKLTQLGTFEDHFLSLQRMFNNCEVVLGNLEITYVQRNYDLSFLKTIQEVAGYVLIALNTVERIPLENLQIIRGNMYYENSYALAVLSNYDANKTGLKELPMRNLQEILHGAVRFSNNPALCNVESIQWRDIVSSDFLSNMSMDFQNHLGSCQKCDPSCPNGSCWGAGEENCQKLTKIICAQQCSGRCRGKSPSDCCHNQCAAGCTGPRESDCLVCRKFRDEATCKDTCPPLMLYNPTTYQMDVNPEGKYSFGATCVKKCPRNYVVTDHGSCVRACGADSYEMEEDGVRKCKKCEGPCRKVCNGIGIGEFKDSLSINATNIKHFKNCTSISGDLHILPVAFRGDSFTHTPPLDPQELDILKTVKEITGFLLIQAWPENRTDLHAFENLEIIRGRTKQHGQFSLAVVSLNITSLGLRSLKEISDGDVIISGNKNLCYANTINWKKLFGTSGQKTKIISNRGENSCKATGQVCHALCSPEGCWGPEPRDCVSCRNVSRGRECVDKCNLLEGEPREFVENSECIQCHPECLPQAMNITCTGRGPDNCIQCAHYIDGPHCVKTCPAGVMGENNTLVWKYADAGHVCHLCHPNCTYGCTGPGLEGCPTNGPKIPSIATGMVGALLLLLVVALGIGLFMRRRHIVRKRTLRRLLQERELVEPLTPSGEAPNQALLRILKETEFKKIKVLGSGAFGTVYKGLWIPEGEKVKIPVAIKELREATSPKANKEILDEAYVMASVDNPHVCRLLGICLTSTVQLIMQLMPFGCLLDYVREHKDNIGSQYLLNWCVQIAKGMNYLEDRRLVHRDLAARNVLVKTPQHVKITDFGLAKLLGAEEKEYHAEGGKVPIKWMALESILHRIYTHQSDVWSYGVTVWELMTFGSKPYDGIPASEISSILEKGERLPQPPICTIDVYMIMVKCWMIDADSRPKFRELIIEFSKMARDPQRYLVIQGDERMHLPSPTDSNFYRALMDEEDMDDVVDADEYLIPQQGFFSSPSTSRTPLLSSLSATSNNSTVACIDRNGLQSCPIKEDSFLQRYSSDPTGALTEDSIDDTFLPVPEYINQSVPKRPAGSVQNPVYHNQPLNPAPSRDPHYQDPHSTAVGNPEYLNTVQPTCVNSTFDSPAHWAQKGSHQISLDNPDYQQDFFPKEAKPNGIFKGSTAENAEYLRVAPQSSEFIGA
# CK1g3, sequence (Q9Y6M4 whole entry): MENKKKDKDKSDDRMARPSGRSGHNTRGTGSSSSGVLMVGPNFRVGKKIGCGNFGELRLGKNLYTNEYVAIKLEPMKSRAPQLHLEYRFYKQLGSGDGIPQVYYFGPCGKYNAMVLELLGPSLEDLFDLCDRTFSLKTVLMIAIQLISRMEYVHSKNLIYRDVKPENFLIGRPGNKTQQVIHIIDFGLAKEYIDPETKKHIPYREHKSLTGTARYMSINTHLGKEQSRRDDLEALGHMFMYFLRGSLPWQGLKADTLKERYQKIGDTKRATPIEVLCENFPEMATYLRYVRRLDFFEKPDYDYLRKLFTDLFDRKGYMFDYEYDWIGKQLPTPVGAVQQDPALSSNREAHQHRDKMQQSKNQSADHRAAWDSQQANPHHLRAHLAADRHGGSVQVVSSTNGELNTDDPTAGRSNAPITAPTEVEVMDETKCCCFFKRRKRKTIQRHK
# EGFR (L858R, T790M), sequence (P00533 25-1210 T790M/L858R): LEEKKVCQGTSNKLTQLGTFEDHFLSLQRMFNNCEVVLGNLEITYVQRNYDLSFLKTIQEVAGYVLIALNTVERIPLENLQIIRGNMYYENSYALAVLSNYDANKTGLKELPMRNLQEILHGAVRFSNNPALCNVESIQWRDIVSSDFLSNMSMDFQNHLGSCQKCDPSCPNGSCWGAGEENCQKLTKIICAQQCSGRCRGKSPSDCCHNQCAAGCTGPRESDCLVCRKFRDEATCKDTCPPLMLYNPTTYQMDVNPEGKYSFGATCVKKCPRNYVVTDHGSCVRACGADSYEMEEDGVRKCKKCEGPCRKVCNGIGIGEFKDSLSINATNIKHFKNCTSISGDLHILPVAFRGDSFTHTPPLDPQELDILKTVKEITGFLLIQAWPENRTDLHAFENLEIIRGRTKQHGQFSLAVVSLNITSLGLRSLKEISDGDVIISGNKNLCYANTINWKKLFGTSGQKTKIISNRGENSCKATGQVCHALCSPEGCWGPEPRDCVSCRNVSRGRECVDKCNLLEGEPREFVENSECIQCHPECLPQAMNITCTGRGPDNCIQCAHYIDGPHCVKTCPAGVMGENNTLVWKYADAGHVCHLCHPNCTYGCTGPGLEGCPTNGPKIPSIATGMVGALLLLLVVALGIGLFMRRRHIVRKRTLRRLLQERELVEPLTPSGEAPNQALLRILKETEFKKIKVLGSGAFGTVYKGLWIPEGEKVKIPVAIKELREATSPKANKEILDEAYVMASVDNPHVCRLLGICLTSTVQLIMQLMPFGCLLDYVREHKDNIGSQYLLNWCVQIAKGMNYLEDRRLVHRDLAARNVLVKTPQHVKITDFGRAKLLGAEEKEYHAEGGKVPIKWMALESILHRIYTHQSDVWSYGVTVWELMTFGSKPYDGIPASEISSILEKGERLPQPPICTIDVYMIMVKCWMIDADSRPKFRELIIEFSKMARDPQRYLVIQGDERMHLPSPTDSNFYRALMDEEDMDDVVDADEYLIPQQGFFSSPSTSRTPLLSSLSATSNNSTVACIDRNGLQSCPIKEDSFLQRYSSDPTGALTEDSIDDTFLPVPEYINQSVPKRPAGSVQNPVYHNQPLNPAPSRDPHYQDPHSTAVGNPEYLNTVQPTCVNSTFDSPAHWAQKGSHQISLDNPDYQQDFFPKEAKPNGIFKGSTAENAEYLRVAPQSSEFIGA
smiles,measurement,setting,value
C=CC(=O)Nc1cc(CC(=O)OC)cc(-c2cnc3ccccc3n2)c1 [Compound 2],IC50,JAK3; [3],0.013 µM
same,JAK3 selectivity vs. STAT5,JAK3,(370X)*
same,IC50,JAK3; [4],0.015 µM
same,IC50,JAK3; [5],0.007 µM
same,IC50,JAK3; [6],0.007 µM
same,"selectivity for JAK3 compared to JAK1, JAK2, and TYK2 (in words)",JAK3,highly selective for JAK3
same,IC50,TXK,14.9 nM
same,IC50,CYP1A2; first session (before /),90 µM
same,IC50,CYP1A2; second session (after /),5.1 µM
same,Brain penetration classification,[1],Moderate
same,IC50,STAT5; [7],0.8 µM
same,IC50,STAT5; [8],0.8 µM
same,IC50,STAT5; [9],2.9 µM
same,IC50,STAT5; [10],2.9 µM
same,solubility,[2]; [11],9 µM
same,solubility,[2]; [12],1 µM
same,solubility,[2]; [13],9 µM
same,solubility,[2]; [14],1 µM
same,IC50,CK1g3,24.4 nM
same,IC50,EGFR (T790M),3310 nM
same,IC50,"EGFR (L858R, T790M)",653 nM
C=CC(=O)Nc1cc(NS(C)(=O)=O)cc(-c2cnc3ccccc3n2)c1 [Compound 3],IC50,JAK3; [3],0.016 µM
same,JAK3 selectivity vs. STAT5,JAK3,(382X)*
same,IC50,JAK3; [4],0.016 µM
same,IC50,JAK3; [5],0.023 µM
same,IC50,JAK3; [6],0.023 µM
same,"selectivity for JAK3 compared to JAK1, JAK2, and TYK2 (in words)",JAK3,highly selective for JAK3
same,IC50,TXK,144 nM
same,IC50,CYP1A2; first session (before /),> 100 µM
same,IC50,CYP1A2; second session (after /),> 100 µM
same,Brain penetration classification,[1],Low
same,IC50,STAT5; [7],7.5 µM
same,IC50,STAT5; [8],7.5 µM
same,IC50,STAT5; [9],7.4 µM
same,IC50,STAT5; [10],7.4 µM
same,solubility,[2]; [11],34 µM
same,solubility,[2]; [12],3 µM
same,solubility,[2]; [13],34 µM
same,solubility,[2]; [14],3 µM
same,IC50,CK1g3,118 nM
same,IC50,EGFR (T790M),2240 nM
same,IC50,"EGFR (L858R, T790M)",1120 nM
"C=CC(=O)Nc1cc(CN2CCNC(=O)C2)cc(-c2cnc3ccccc3n2)c1 [Compound 1b, N-[3-[(3-oxopiperazin-1-yl)methyl]-5-quinoxalin-2-yl-phenyl] prop-2-enamide]",IC50,JAK3; [3],0.018 µM
same,JAK3 selectivity vs. STAT5,JAK3,(392X)*
same,IC50,JAK3; [4],0.018 µM
same,IC50,JAK3; [5],0.018 µM
same,IC50,JAK3; [6],0.018 µM
same,"selectivity for JAK3 compared to JAK1, JAK2, and TYK2 (in words)",JAK3,highly selective for JAK3
same,IC50,TXK,16.1 nM
same,IC50,CYP1A2; first session (before /),> 100 µM
same,IC50,CYP1A2; second session (after /),> 100 µM
same,Brain penetration classification,[1],Low
same,IC50,STAT5; [7],5.5 µM
same,IC50,STAT5; [8],5.5 µM
same,IC50,STAT5; [9],8.6 µM
same,IC50,STAT5; [10],8.6 µM
same,solubility,"[2]; pH 5, aqueous buffer, pH 5.0, read-out: Solubility In Aqueous Buffer pH 5.0",93 µM
same,solubility,"[2]; pH 6.5, aqueous buffer, pH 6.5, read-out: Solubility In Aqueous Buffer pH 6.5",108 µM
same,solubility,[2]; [11],88 µM
same,solubility,[2]; [12],88 µM
same,solubility,[2]; [13],88 µM
same,solubility,[2]; [14],88 µM
same,solubility at pH 7.4 (in words),[2]; pH 7.4,highly and consistently soluble
same,IC50,CK1g3,757 nM
same,IC50,EGFR (T790M),3540 nM
same,IC50,"EGFR (L858R, T790M)",1320 nM
C=CC(=O)Nc1cc(CN2CCN(C)C(=O)C2)cc(-c2cnc3ccccc3n2)c1 [Compound 1a],IC50,JAK3; [3],0.013 µM
same,JAK3 selectivity vs. STAT5,JAK3,(178X)*
same,IC50,JAK3; [4],0.013 µM
same,IC50,JAK3; [5],0.01 µM
same,IC50,JAK3; [6],0.01 µM
same,"selectivity for JAK3 compared to JAK1, JAK2, and TYK2 (in words)",JAK3,highly selective for JAK3
same,IC50,TXK,31.6 nM
same,IC50,CYP1A2; first session (before /),34 µM
same,IC50,CYP1A2; second session (after /),> 100 µM
same,Brain penetration classification,[1],Low
same,IC50,STAT5; [7],1.2 µM
same,IC50,STAT5; [8],1.2 µM
same,IC50,STAT5; [9],2.9 µM
same,IC50,STAT5; [10],2.9 µM
same,solubility,[2]; [11],85 µM
same,solubility,[2]; [12],34 µM
same,solubility,[2]; [13],85 µM
same,solubility,[2]; [14],34 µM
same,IC50,CK1g3,358 nM
same,IC50,EGFR (T790M),688 nM
same,IC50,"EGFR (L858R, T790M)",231 nM

# Source: patent US10045981B2, “Selective kinase inhibitors” (JAKPHARM, LLC, priority 2015, dated 2018)
